Experimental data as given in PubChem BioAssay (NCI).
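Cells were grown in 96-well plates and exposed to each compound for 48 hours at five concentrations; endpoints were interpolated linearly between bracketing concentrations, or set to the highest concentration if not reached. Here, GI50 denotes the concentration required for 50% inhibition of growth. TGI: concentration producing complete growth inhibition.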

Columns and labels:
Assay in all cases: inhibition of tumour cell growth, NCI panel, 48 h
CCRF-CEM leukemia = tested on: CCRF-CEM leukemia
DU-145 prostate = tested on: DU-145 prostate
M14 melanoma = tested on: M14 melanoma
MCF7 breast = tested on: MCF7 breast
MDA-MB-231 breast = tested on: MDA-MB-231 breast
NCI-H23 lung = tested on: NCI-H23 lung
PC-3 prostate = tested on: PC-3 prostate
SF-539 CNS = tested on: SF-539 CNS
UACC-257 melanoma = tested on: UACC-257 melanoma
MALME-3M melanoma = tested on: MALME-3M melanoma

Compound	TGI (CCRF-CEM leukemia)	TGI (DU-145 prostate)	TGI (M14 melanoma)	TGI (MCF7 breast)	TGI (MDA-MB-231 breast)	TGI (NCI-H23 lung)	TGI (PC-3 prostate)	TGI (SF-539 CNS)	TGI (UACC-257 melanoma)	TGI (MALME-3M melanoma)	GI50 (DU-145 prostate)	GI50 (MALME-3M melanoma)	GI50 (MCF7 breast)	GI50 (NCI-H23 lung)	GI50 (PC-3 prostate)	GI50 (SF-539 CNS)	GI50 (UACC-257 melanoma)	GI50 (CCRF-CEM leukemia)	GI50 (MDA-MB-231 breast)
NC(CCOCCP(=O)(O)O)C(=O)O (stereo not given)	> 100 µM	> 100 µM	> 100 µM	> 100 µM	> 100 µM	> 100 µM	> 100 µM	> 100 µM	> 100 µM										
NNC(=S)NCCNC(=S)NN	> 100 µM	> 100 µM	> 100 µM		> 100 µM	> 100 µM	> 100 µM		> 100 µM	> 100 µM									
CCN(CC)CCN1C(=O)c2c(c3c4ccccc4[nH]c3c3ccc4ccccc4c23)C1=O		3.06 µM		1.96 µM		3.52 µM	3.25 µM	3.08 µM	3.27 µM	3.46 µM	1.65 µM	1.79 µM	0.0836 µM	1.69 µM	1.44 µM	1.7 µM	1.73 µM		
O=C1C(Cl)=C(N(C(=O)c2ccccc2)C(=O)c2ccccc2)C(=O)c2ccccc21	18.6 µM	> 100 µM	> 100 µM	24 µM	> 100 µM	31.1 µM	> 100 µM	19.6 µM	28.7 µM										
Nc1nc(Cl)cc(NC2(CO)CCC2)n1	> 100 µM	> 100 µM		> 100 µM	> 100 µM	> 100 µM	> 100 µM	> 100 µM	> 100 µM	> 100 µM									
C=C(NC(=O)C(=C)NC(=O)c1csc(C2=NC3c4csc(n4)C4NC(=O)c5csc(n5)C(C(C)(O)C(C)O)NC(=O)C5CSC(=N5)/C(=C/C)NC(=O)C(C(C)O)NC(=O)c5csc(n5)C3(CC2)NC(=O)C(C)NC(=O)C(=C)NC(=O)C(C)NC(=O)C(C(C)CC)NC2C=Cc3c(C(C)O)cc(nc3C2O)C(=O)OC4C)n1)C(N)=O (stereo not given)	3.49 µM		3.17 µM	> 100 µM		13.7 µM		4.13 µM	4.22 µM	3.99 µM			6.27 µM						
COc1cc(OC)c2c3c(OC)cc(OC)c4c(=O)c(O)c(C[C@@H](C)O)c(c5c(C[C@@H](C)O)c(O)c(=O)c1c25)c43		> 100 µM	47 µM	48.6 µM	25.3 µM	40 µM		93.5 µM	> 100 µM										
C/C=C1\CN(C(=O)OC(C)(C)C)C1C(=O)OC(C)(C)C (stereo not given)	> 100 µM		> 100 µM	> 100 µM		> 100 µM	> 100 µM	> 100 µM	> 100 µM	> 100 µM									
NC1=NS(=O)(=O)Nc2nc(-c3ccccc3)[nH]c21	> 100 µM		> 100 µM			> 100 µM		> 100 µM	> 100 µM	> 100 µM									
COC(=O)c1c(C#N)c(N)nc2c1CCC2	> 100 µM	> 100 µM	> 100 µM	> 100 µM	> 100 µM	> 100 µM	> 100 µM		> 100 µM	> 100 µM									
CC(=O)Oc1c(-c2ccccc2)sc2ccccc12	37 µM	27.9 µM		56.4 µM	33.4 µM	38.7 µM	97.5 µM	46.8 µM	37 µM	37.2 µM									
CC1(C)CCC(C)(C)C1C(=O)NC(O)C(=O)O (stereo not given)	> 100 µM	> 100 µM	> 100 µM	> 100 µM	> 100 µM		> 100 µM	> 100 µM											
O=C(CCC=C(S(=O)(=O)c1ccccc1)S(=O)(=O)c1ccccc1)c1ccccc1		25.4 µM	20.9 µM	17.1 µM	22.9 µM		14.2 µM	6.57 µM	23.3 µM	17.9 µM									
Cc1oc2c(c1C)S(=O)(=O)C(C#N)=C(N(C)C)N2		> 100 µM	> 100 µM	> 100 µM	> 100 µM	> 100 µM	> 100 µM	> 100 µM	> 100 µM	> 100 µM									
CCOC(=O)Nc1ccc2c(c1)c(CCCCCCc1nc3ccccc3c3ccc(NC(=O)OCC)cc13)nc1ccccc12	> 100 µM	> 100 µM	88.8 µM	> 100 µM	67.8 µM	> 100 µM	> 100 µM	25 µM	> 100 µM										
O=C(c1ccccc1)C1S(=O)(=O)OCCOS1(=O)=O	> 100 µM		> 100 µM			> 100 µM		> 100 µM	> 100 µM	> 100 µM									
Cn1cc(-c2ccc3cc(-c4ccc(CC(=O)Nc5cc(C(C)(C)C)on5)cc4)cnc3c2)cn1	> 100 µM	10.2 µM		17.8 µM	12.2 µM	10.5 µM	20.8 µM	14.4 µM			1.05 µM		1.92 µM	2.27 µM	2.4 µM	0.339 µM		2.17 µM	2.26 µM
COc1ccc([C@@H]2CC(=O)N2)cc1	> 100 µM		> 100 µM			> 100 µM		> 100 µM	> 100 µM	> 100 µM									
O=C(NC(=O)c1cc(-c2ccccc2)n[nH]1)c1ccccc1	> 100 µM	> 100 µM	> 100 µM	> 100 µM	> 100 µM	> 100 µM	> 100 µM	> 100 µM	> 100 µM										
Clc1ccc(-c2cn3c(nc4ccccc43)c(/C=C/c3ccco3)n2)cc1		> 100 µM	> 100 µM	> 100 µM	> 100 µM	> 100 µM		> 100 µM	> 100 µM	> 100 µM									
CCOC(=O)C(Cc1c[nH]c2cc([N+](=O)[O-])ccc12)NS(=O)(=O)c1ccc2ccccc2c1 (stereo not given)	49.1 µM		34.1 µM			48.4 µM		32.9 µM	28.8 µM										
C=C1C(O)C[C@H](OC(C)=O)[C@]2(C)C1C(OC(C)=O)[C@]1(C(C)(C)O)CC(O)C(C)=C1[C@@H](OC(=O)c1ccccc1)C2OC(C)=O (stereo not given in full)	> 10 µM	> 10 µM	> 10 µM	> 10 µM	> 10 µM	> 10 µM	> 10 µM	> 10 µM	> 10 µM										
O=C(N=c1ccc2nc(=O)[nH]n(O)c-2c1)C(F)(F)F	> 100 µM	> 100 µM	> 100 µM	> 100 µM	> 100 µM	> 100 µM	> 100 µM	> 100 µM	> 100 µM										
